Assay results from patent US10941158B2, “Pyrazole ACC inhibitors and uses thereof” (Gilead Apollo, LLC, priority 2015, dated 2021).
pIC50: −log10 of the molar value. Values after ≈ are worked out from the molar mass of the structure shown. Like-named read-outs stand apart in the source and are kept apart here.

Columns and labels:
fungal (fACC2) ACC2 = fungal (fACC2) ACC2 (UniProt Q00955); details: read-out: fACC2 IC50; fungal ACC2, ADP-Glo
human (hACC2) ACC2 = human (hACC2) ACC2 (Homo sapiens, UniProt O00763); assay: In vitro Acetyl-CoA Carboxylase (ACC) inhibition assay (ADP-Glo), hACC2; assay type: biochemical
Description: The detailed procedure is as follows. […] 10 μL ADP glo reagent was added. […] 20 μL kinase detection reagent was added.
“NA” stands for “not assayed.”

[1] = test system: Phytophthora capsici (Pc); assay: Growth inhibition assay of fungal pathogens; assay type: cell-based; details: for IC90: Phytophthora capsici, read-out: Concentration at 90% Inhibition Pc
Procedure, shortened: (§1)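 Compounds in DMSO tested at final 50, 10, 2 ppm or 2, 0.4, 0.08 ppm. Spores in 17% V8 medium, or 1.5 mm mycelial plugs in ¼ PDB for R. solani, incubated with compound. OD600 and visual ratings at 48 h versus 2% DMSO control gave percent growth inhibition.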

Rhizoctonia solani (Rs) = assay: Growth inhibition assay of fungal pathogens; assay type: cell-based; details: 48 h, read-out: Concentration at 90% Inhibition Rs
Procedure, shortened: (§2)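 OD600 (blank-subtracted) plus visual scoring at 48 h, vs 2% DMSO ctrl → % inhibition. Final cpd 50/10/2 or 2/0.4/0.08 ppm. Fm/Bc/Dm spores in 17% V8 broth; Rs as 1.5 mm plugs in ¼ PDB.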

Botrtyis cinerea (Bc) = assay: Growth inhibition assay of fungal pathogens; assay type: cell-based; details: 48 h, read-out: Concentration at 90% Inhibition Bc
Procedure, shortened: as §2

Septoria tritici (St) = assay: Growth inhibition assay of fungal pathogens; assay type: cell-based; details: for IC90: Zymoseptoria tritici, read-out: Concentration at 90% Inhibition St
Procedure, shortened: as §1

Diplodia maydis (Dm) = assay: Growth inhibition assay of fungal pathogens; assay type: cell-based; details: Stenocarpella maydis, 48 h, read-out: Concentration at 90% Inhibition Dm
Procedure, shortened: as §2

[2] = test system: Fusarium virguliforme (Fv); assay: Growth inhibition assay of fungal pathogens; assay type: cell-based; details: 48 h
Procedure, shortened: as §1

[3] = test system: Collectotrichum graminicola (Cg); assay: Growth inhibition assay of fungal pathogens; assay type: cell-based; details: 48 h, read-out: Concentration at 90% Inhibition Cg
Procedure, shortened: as §1

[4] = test system: Fusarium moniliforme (Fm); assay: Growth inhibition assay of fungal pathogens; assay type: cell-based; details: for IC90: Fusarium verticillioides, 48 h, read-out: Concentration at 90% Inhibition Fm
Procedure, shortened: as §2

C. krusei ATCC 6258 = assay: Anti-Fungal (Candida) Activity Assay, broth microtiter MIC; assay type: cell-based; details: Pichia kudriavzevii, read-out: MIC C. krusei ATCC 6258
Procedure, shortened: (§3)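 In CLSI M27-A3 microtiter plates, yeast from overnight agar culture is inoculated in RPMI 1640–MOPS at a standard-curve density. The MIC is the endpoint scored visually against growth control at 48 h.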

C. albicans ATCC 90028 = assay: as above; assay type: cell-based; details: read-out: MIC C. albicans ATCC 90028
Procedure, shortened: as §3

[5] = test system: C. parapsilosis ATCC 22019; assay: as above; assay type: cell-based; details: Lodderomyces parapsilosis, read-out: MIC C. parapsilosis ATCC 22019
Procedure, shortened: as §3

[6] = read-out: Concentration at 90% Inhibition Fv, Table 4a, 48 hours
[7] = read-out: Concentration at 90% Inhibition Fv, Table 4b, 48 hours

Chain of fungal (fACC2) ACC2 (Q00955 whole entry): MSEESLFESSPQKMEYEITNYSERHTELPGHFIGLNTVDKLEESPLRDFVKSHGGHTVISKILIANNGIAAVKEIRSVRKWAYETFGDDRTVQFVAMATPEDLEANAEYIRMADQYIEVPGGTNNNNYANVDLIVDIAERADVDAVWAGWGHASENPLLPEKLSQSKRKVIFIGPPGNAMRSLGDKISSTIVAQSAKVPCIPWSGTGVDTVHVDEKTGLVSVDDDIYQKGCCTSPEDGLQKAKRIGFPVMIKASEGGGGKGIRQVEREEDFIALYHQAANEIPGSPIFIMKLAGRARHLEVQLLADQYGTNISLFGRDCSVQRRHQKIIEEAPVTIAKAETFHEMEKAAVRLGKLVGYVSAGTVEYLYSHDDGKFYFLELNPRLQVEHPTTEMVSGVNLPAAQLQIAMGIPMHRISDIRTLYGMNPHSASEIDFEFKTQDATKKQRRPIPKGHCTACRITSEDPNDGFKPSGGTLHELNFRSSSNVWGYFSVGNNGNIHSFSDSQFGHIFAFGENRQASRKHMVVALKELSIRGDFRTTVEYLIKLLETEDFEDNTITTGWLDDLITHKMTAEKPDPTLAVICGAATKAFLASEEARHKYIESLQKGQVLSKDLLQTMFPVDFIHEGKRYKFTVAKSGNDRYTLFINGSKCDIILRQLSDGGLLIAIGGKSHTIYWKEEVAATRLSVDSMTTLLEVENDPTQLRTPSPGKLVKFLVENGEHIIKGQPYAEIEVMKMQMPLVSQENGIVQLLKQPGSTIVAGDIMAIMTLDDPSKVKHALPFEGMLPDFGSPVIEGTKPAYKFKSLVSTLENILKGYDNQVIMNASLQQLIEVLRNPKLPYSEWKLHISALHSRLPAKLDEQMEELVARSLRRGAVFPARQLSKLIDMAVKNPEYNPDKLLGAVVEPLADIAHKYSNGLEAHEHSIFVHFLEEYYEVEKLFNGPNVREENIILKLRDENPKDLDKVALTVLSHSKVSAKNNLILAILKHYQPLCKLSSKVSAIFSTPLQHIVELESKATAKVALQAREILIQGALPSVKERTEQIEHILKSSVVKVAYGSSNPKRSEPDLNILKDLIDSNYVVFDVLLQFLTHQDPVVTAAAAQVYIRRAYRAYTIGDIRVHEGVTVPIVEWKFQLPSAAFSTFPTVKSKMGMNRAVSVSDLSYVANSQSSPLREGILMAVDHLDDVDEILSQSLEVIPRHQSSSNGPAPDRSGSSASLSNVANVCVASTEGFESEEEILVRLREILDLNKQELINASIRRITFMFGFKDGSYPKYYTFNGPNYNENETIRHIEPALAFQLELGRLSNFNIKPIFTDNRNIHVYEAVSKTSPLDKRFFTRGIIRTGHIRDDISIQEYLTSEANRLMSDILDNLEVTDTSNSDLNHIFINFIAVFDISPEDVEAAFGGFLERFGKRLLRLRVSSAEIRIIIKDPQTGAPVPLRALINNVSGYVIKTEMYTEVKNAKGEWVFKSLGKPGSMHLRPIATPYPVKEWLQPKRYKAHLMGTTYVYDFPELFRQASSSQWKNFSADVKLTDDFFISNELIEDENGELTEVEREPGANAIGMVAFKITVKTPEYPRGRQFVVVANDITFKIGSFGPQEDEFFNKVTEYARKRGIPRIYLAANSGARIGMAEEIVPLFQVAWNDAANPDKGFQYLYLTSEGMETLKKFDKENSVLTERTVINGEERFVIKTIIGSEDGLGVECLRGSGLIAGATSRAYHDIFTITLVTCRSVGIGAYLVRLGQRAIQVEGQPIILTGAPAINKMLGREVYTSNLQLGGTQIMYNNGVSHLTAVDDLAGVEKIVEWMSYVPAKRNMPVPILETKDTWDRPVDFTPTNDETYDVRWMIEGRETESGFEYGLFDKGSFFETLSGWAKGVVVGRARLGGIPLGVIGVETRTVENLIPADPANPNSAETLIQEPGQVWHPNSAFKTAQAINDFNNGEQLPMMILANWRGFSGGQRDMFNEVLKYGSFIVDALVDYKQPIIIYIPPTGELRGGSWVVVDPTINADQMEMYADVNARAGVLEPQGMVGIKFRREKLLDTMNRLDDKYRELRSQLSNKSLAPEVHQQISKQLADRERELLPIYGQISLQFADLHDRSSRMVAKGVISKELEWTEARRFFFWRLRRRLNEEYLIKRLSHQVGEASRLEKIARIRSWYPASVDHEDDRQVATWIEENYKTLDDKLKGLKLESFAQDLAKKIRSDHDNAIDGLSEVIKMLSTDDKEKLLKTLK
Chain of human (hACC2) ACC2 (O00763 whole entry): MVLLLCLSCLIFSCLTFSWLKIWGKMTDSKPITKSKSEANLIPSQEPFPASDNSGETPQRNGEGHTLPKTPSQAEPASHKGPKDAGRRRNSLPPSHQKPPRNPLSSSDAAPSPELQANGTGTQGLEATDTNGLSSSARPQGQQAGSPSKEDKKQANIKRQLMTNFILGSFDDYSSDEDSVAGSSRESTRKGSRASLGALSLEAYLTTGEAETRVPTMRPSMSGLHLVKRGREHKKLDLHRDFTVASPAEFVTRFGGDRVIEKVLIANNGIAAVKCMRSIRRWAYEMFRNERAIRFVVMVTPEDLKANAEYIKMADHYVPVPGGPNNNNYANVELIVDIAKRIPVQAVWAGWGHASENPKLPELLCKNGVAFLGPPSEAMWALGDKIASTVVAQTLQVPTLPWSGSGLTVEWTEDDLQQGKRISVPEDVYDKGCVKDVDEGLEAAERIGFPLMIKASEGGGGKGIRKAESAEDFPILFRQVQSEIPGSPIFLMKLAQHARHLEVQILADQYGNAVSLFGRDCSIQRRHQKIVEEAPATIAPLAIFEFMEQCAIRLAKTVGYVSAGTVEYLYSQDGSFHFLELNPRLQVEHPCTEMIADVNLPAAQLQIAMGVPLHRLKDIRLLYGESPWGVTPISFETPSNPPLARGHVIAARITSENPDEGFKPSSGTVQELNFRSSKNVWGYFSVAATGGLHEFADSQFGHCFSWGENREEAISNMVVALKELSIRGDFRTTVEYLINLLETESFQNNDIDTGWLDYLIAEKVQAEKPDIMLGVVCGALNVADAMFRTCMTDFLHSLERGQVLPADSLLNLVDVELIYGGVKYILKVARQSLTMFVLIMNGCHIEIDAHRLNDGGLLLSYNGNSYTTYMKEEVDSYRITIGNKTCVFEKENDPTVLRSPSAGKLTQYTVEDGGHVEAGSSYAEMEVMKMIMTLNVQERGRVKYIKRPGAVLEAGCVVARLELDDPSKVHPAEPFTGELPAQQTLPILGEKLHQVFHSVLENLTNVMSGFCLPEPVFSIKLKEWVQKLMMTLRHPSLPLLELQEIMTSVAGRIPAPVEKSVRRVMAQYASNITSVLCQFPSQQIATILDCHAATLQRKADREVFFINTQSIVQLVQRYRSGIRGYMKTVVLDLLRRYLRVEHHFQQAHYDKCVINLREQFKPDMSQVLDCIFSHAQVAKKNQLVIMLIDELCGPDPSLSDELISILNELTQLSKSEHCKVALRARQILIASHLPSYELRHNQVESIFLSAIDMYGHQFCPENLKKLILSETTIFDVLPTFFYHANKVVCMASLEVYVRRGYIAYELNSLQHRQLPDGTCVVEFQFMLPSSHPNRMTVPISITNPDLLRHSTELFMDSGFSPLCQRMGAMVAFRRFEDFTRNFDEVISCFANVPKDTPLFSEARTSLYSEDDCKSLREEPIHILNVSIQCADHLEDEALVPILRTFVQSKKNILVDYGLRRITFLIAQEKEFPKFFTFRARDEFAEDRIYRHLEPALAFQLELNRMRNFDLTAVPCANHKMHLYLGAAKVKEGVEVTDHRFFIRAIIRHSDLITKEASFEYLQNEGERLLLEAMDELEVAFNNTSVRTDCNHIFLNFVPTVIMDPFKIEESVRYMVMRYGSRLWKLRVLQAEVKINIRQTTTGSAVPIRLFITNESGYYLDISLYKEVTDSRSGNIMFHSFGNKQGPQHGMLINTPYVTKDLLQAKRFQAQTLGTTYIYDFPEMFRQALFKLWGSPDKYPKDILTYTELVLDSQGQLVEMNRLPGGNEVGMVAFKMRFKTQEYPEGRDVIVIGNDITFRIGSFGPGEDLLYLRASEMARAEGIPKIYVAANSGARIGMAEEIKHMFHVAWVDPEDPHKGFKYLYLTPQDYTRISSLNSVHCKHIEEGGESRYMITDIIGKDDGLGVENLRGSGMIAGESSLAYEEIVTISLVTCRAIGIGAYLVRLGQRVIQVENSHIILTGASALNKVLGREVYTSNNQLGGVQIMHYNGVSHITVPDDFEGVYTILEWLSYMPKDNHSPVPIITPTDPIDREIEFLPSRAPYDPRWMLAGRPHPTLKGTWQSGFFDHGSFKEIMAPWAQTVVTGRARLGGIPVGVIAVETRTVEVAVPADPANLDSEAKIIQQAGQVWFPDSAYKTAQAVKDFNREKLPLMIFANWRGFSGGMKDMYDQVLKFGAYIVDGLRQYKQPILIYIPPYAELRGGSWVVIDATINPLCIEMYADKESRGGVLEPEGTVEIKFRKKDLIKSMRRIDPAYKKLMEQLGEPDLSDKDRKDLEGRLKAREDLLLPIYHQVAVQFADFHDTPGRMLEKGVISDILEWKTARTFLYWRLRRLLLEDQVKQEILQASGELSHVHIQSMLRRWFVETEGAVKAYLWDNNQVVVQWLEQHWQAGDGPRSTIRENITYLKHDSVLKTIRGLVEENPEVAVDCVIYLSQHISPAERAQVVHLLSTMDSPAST

Compound `COc1ccc(F)cc1[C@H](Cn1c(=O)n(C(C)(C)C(=O)NC(C)C)c(=O)c2c(C)c(-n3cccn3)sc21)OCC(C)(C)O` [Compound I-41, (R)-2-(1-(2-(5-fluoro-2-methoxyphenyl)-2-(2-hydroxy-2-methylpropoxy)ethyl)-5-methyl-2,4-dioxo-6-(1H-pyrazol-1-yl)-1,4-dihydro-thieno[2,3-d]pyrimidin-3(2H)-yl)-N-isopropyl-2-methylpropanamide] has a pIC50 (fungal (fACC2) ACC2) of 8.52 to 9.22, a pIC50 (human (hACC2) ACC2) of 8.00 to 8.52 and an IC90 ([1]; 48 h, Table 4a) greater than 50 µg/mL. It also gave an IC90 ([1]; 48 h, Table 4b) greater than 50 µg/mL, an IC90 (Rhizoctonia solani (Rs); Table 4a) of 10 µg/mL (≈ 16.2 µM) and an IC90 (Rhizoctonia solani (Rs); Table 4b) of 2 µg/mL (≈ 3.25 µM). The IC90 (Botrtyis cinerea (Bc); Table 4a) was 2 µg/mL (≈ 3.25 µM), the IC90 (Botrtyis cinerea (Bc); Table 4b) was 2 µg/mL (≈ 3.25 µM) and the IC90 (Septoria tritici (St); 48 h, Table 4a) was greater than 50 µg/mL. For the same compound, the IC90 (Septoria tritici (St); 48 h, Table 4b) was 10 µg/mL (≈ 16.2 µM), the IC90 (Diplodia maydis (Dm); Table 4a) was 10 µg/mL (≈ 16.2 µM) and the IC90 (Diplodia maydis (Dm); Table 4b) was 2 µg/mL (≈ 3.25 µM). It also gave an IC90 [2, 6] of 0.4 µg/mL (≈ 0.65 µM), an IC90 [2, 7] of 0.4 µg/mL (≈ 0.65 µM) and an IC90 ([3]; Table 4a) of 2 µg/mL (≈ 3.25 µM). The IC90 ([3]; Table 4b) was 2 µg/mL (≈ 3.25 µM), the IC90 [4] was 0.4 µg/mL (≈ 0.65 µM) and the “Concentration at 90% Inhibition Fm” value ([4]; Table 4b, 48 hours) was “A (“A” provided a compound concentration of 0.4 ppm at 90% inhibition of fungal pathogens)”. The MIC (C. krusei ATCC 6258; ATCC6258, 48 h) was greater than 4.1 µg/mL, the MIC (C. albicans ATCC 90028; ATCC90028, 48 h) was greater than 4.1 µg/mL and the MIC ([5]; ATCC22019, 48 h) was greater than 4.1 µg/mL.
`COc1ccc(F)cc1[C@H](Cn1c(=O)n(C(C)(C)C(=O)N2CCCC2)c(=O)c2c(C)c(-n3cccn3)sc21)OCC(C)(C)O` [Compound I-42, (R)-1-(2-(5-fluoro-2-methoxyphenyl)-2-(2-hydroxy-2-methylpropoxy)ethyl)-5-methyl-3-(2-methyl-1-oxo-1-(pyrrolidin-1-yl)propan-2-yl)-6-(1H-pyrazol-1-yl)thieno[2,3-d]pyrimidine-2,4(1H,3H)-dione] was tested, and the pIC50 (fungal (fACC2) ACC2) was 8.52 to 9.22, the pIC50 (human (hACC2) ACC2) was 8.00 to 8.52 and the IC90 ([1]; Table 4a, 48 hours) was greater than 50 µg/mL. The “Concentration at 90% Inhibition Pc” value ([1]; Table 4b, 48 hours) was “D (“D” provided a compound concentration of >50 ppm at 90% inhibition of fungal pathogens)”, the IC90 (Rhizoctonia solani (Rs); Table 4a) was 10 µg/mL (≈ 15.9 µM) and the IC90 (Rhizoctonia solani (Rs); Table 4b) was 2 µg/mL (≈ 3.19 µM). The IC90 (Botrtyis cinerea (Bc); Table 4a) was greater than 50 µg/mL, the IC90 (Botrtyis cinerea (Bc); Table 4b) was 10 µg/mL (≈ 15.9 µM) and the “Concentration at 90% Inhibition St” value (Septoria tritici (St); Table 4b, 48 hours) was “D (“D” provided a compound concentration of >50 ppm at 90% inhibition of fungal pathogens)”. For the same compound, the IC90 (Septoria tritici (St); Table 4a, 48 hours) was greater than 50 µg/mL, the IC90 (Diplodia maydis (Dm); Table 4a) was greater than 50 µg/mL and the IC90 (Diplodia maydis (Dm); Table 4b) was 10 µg/mL (≈ 15.9 µM). The IC90 ([2]; Table 4a, 48 hours, read-out: Concentration at 90% Inhibition Fv) was greater than 50 µg/mL, the IC90 ([2]; Table 4b, 48 hours, read-out: Concentration at 90% Inhibition Fv) was 10 µg/mL (≈ 15.9 µM) and the IC90 ([3]; Table 4a) was greater than 50 µg/mL. For the same compound, the IC90 ([3]; Table 4b) was 10 µg/mL (≈ 15.9 µM), the IC90 ([4]; Table 4a, 48 hours) was 0.4 µg/mL (≈ 0.637 µM) and the IC90 ([4]; Table 4b, 48 hours) was 0.4 µg/mL (≈ 0.637 µM). The MIC (C. krusei ATCC 6258; ATCC6258, 3 replicates, MIC recorded at 48 h) was 2.1 to 4 µg/mL (≈ 3.35 to 6.37 µM), the MIC (C. albicans ATCC 90028; ATCC90028, 3 replicates, MIC recorded at 48 h) was 2.1 to 4 µg/mL (≈ 3.35 to 6.37 µM) and the MIC ([5]; ATCC22019, 3 replicates, MIC recorded at 48 h) was greater than 4.1 µg/mL.
In the case of `COCCO[C@@H](Cn1c(=O)n(C(C)(C)C(=O)NC(C)C)c(=O)c2c(C)c(-n3cccn3)sc21)c1cc(F)ccc1OC` [Compound I-43, (R)-2-(I-(2-(5-fluoro-2-methoxyphenyl)-2-(2-methoxy-ethoxy)ethyl)-5-methyl-2,4-dioxo-6-(1H-pyrazol-1-yl)-1,4-dihydrothieno[2,3-d]pyrimidin-3(2H)-yl)-N-isopropyl-2-methylpropanamide], the pIC50 (fungal (fACC2) ACC2) was 8.52 to 9.22, the pIC50 (human (hACC2) ACC2) was 7.40 to 8.00 and the IC90 ([1]; 48 h, Table 4a) was greater than 50 µg/mL. The IC90 ([1]; 48 h, Table 4b) was greater than 50 µg/mL, the IC90 (Rhizoctonia solani (Rs); Table 4a) was greater than 50 µg/mL and the IC90 (Rhizoctonia solani (Rs); Table 4b) was 10 µg/mL (≈ 16.6 µM). For the same compound, the IC90 (Botrtyis cinerea (Bc); Table 4a) was greater than 50 µg/mL, the IC90 (Botrtyis cinerea (Bc); Table 4b) was 10 µg/mL (≈ 16.6 µM) and the IC90 (Septoria tritici (St); 48 h, Table 4a) was greater than 50 µg/mL. For the same compound, the IC90 (Septoria tritici (St); 48 h, Table 4b) was greater than 50 µg/mL, the IC90 (Diplodia maydis (Dm); Table 4a) was greater than 50 µg/mL and the IC90 (Diplodia maydis (Dm); Table 4b) was 10 µg/mL (≈ 16.6 µM). For the same compound, the IC90 [2, 6] was 2 µg/mL (≈ 3.32 µM), the IC90 [2, 7] was 2 µg/mL (≈ 3.32 µM) and the IC90 ([3]; Table 4a) was greater than 50 µg/mL. The IC90 ([3]; Table 4b) was greater than 50 µg/mL, the IC90 [4] was 2 µg/mL (≈ 3.32 µM) and the “Concentration at 90% Inhibition Fm” value ([4]; Table 4b, 48 hours) was “B (“B” provided a compound concentration of 2.0 ppm at 90% inhibition of fungal pathogens)”. The MIC (C. krusei ATCC 6258; ATCC6258, 48 h) was 0.25 to 1 µg/mL (≈ 0.415 to 1.66 µM), the MIC (C. albicans ATCC 90028; ATCC90028, 48 h) was 1.1 to 2 µg/mL (≈ 1.83 to 3.32 µM) and the MIC ([5]; ATCC22019, 48 h) was 2.1 to 4 µg/mL (≈ 3.49 to 6.65 µM).
